Legend:
[1] = system: PBMC from a HCV-infected patient B3019; experiment: T-cell proliferation (tritiated thymidine incorporation) with single wild type and variant peptides; type: cell-based, human; settings: flow cytometry analysis of cells stimulated by wild type peptide
[2] = system: CD4+ cells from PBMC of HLA-DRB1*15-positive HCV-infected patients; experiment: Intracellular cytokine staining and flow cytometry of purified CD4+ cells (Treg phenotypes), HCV+ patients; type: cell-based, human
Experimental: (§1) PBMCs were re-suspended at a concentration of 1 × 10^6 /ml in RPMI 1640 tissue culture medium as mentioned above in the description of the proliferation assay. 1 ml aliquots of PBMC were added to a 24-well tissue culture plate containing each wild type NS3_358-375 or variant pool, and medium alone. The concentrations of peptides are 5 μM for NS3_358-375 and 1 μM for each of variant peptides. After culturing for 66 hours, the PBMCs were treated with anti-human CD4 antibodies and magnetic micro-beads (Miltenyi Biotec, Auburn, CA) for positive selection of CD4 cells using a Magnetic Cell Separator (MACS, Miltenyi Biotec). The purity of CD4^+ cells obtained was 99.3% determined by Flow Cytometry.
(§2) The purified CD4^+ cells were treated with 0.5 ml of fix/permeabilizing solution (BD Pharmingen) for 10 minutes. After washing, the appropriate volume of specific fluorescent-labeled anti-CD25-ECD, anti-IFN-γ-FITC, anti-IL-10-PE, anti-TGF-β1-biotin and streptavidin-CyChrome were added to each of the tubes. One additional tube of CD4^+ cells were incubated with Foxp3-FITC, CD152 (CTLA-4)-PE and CD25-ECD. A tube of pooled CD4^+ cells from each culture was stained with isotype antibodies equivalent to each of the antibodies described above. In addition, four tubes of pooled CD4^+ cells were stained with each of the above antibodies alone as single-color controls which is necessary for color compensation. All tubes were incubated for 30 minutes in dark at room temperature. After washing, cells were re-suspended in 300 μl of wash buffer (BD Pharmingen), and a four color or three-color flow cytometry assay was performed within 24 hours at the Flow Cytometry Service Laboratory of the University of Illinois at Chicago. A total 1 × 10^5 cells were counted to determine the ratio of CD25^+, CD25^- and cytokine producing cells of each CD4^+ population.
Figure 3 Treg phenotypes induced by peptide NS3_358-375 and variant pools VP1 and VP2. Cell culture adn purification of CD4^+ cells and controls were the same as described in Figure 2. Intracellular staining and four-color flow cytometry using fluorescent-labeled antibodies to human CD25, IFN-γ, TGF-β and IL-10 were performed with purified CD4^+ cells. A pool from each test was used as an isotype control. A: Percentages of CD25^+ gated CD4^+ cells. […] B: Percentages of Th3 and Tr1 cells. Note that 58~67% of the CD25^+ cells were TGF-β^+ (sum of the upper two quadrants). A majority of the CD25^+IL-10^+ cells were also TGF-β^+ (the upper right quadrant). C: Percentages of CD25^- gated CD4^+ cells. D: Percentages of Th3 and Tr1 cells. […] Two representatives of eight experiments are shown. […]

[3] = system: CD4+ cells from PBMC of HLA-DRB1*15-positive healthy individuals; experiment: Intracellular cytokine staining and flow cytometry of purified CD4+ cells (Treg phenotypes), HCV- healthy subjects; type: cell-based, human; settings: median (range), n = 3 HLA-DRB1*15+ healthy subjects; NS3_358-375 5 μM or variant pool 1 μM each peptide, 66 hours
Experimental: as §1, §2
Supplementary file 1743-422X-8-377-S3.DOC: Additional file 3 Figure S2. CD4+CD25+ and CD4+CD25- Tregs of a HCV- healthy individual. Experiments, controls, and data analysis were the same as described in Figure 4. A: Percentages of CD25+ and CD25- gated CD4+ cells. B: Percentages of CD25+ Th3 and Tr1 cells. C: Percentages of CD25- Th3 and Tr1 cells. A single representative of three experiments is shown. Click here for file

[4] = system: CD4+ T cells of HCV-infected patient; experiment: Foxp3 and CTLA-4 (CD152) expression on CD4+CD25+ and CD4+CD25- cells, flow cytometry; type: cell-based, human
Experimental: as §2
Figure 4 Characteristics of antigen-driven CD25^+ and CD25^- Tregs. Cellular culture and separation of CD4^+ T cells and controls were the same as described in Figure 2. The purified CD4^+ cells were stained with fluorescent-labeled antibodies for human CD25, CTLA-4 and Foxp3 followed by a flow cytometry assay. The effect of peptide NS3_358-375 and variant pools VP1 and VP2 on expression of Foxp3 (A) and CTLA-4 (B) on CD4^+CD25^- (blue) and CD4^+CD25^+ (red) T cells is shown. Median values for each population are shown in the boxes. One representative of two experiments is shown. […]

HLA-DRB1*1501 molecules = HLA-DRB1*1501 molecules (Homo sapiens, UniProt P01903+P01911); settings: cited from earlier work
From the text: Our previous studies identified a CD4 epitope derived from the NS3 protein of HCV, NS3_358-375 [38]. […] Antigenic variants of the Th1 epitope were identified by RT-PCR, cloning and sequencing. Peptides of wild type NS3_358-375 and its variants (single or double amino acid substitutions) were synthesized and used in the current study (Table 1).

[5] = cells obtained at about 1.5 years of HCV infection, Figure S3
[6] = median (range), n = 6 HLA-DRB1*15+ HCV+ patients, NS3_358-375 5 μM or variant pool 1 μM each peptide, 66 hours

In the case of VIKGGRHLIFCHSKKKCD [NS3_358-375], the “proportion of peripheral proliferating cells that were CD4+” value [1] is reported as “greater than 95%”, the “ratio of CD4+CD25+ cells (CD25+ gated CD4+ cells)” value ([2]; Figure 3A, representative experiment, NS3_358-375 5 μM, pools 1 μM each peptide, listed as wild-type peptide) is reported as 26.0% and the “percentage of CD25-TGF-β+ cells among CD4+CD25- cells” value ([2]; Figure 3D, text value (upper two quadrants)) is reported as 12.7%. The “CD25-IL-10+ Tr1 cells” value ([2]; PBMCs from another DRB1*15+ patient infected with HCV over 20 years, Figure S4) was 25%, the “CD25+ IL-10-secreting Tr1 cells” value [2, 5] was 2.9% and the “CD25- IL-10-secreting Tr1 cells” value [2, 5] was 7.6%. The “CD25+ of CD4+ cells, HCV+ patients” value [2, 6] was 21.6 (18 - 27) %, the “IL-10+ of CD4+CD25+ cells, HCV+ patients” value [2, 6] was 6.51 (3.0 - 11) % and the “TGFβ+ IL-10+ of CD4+CD25+ cells, HCV+ patients” value [2, 6] was 7.85 (5.0 - 12) %. For the same sequence, the “TGFβ+ of CD4+CD25+ cells, HCV+ patients” value [2, 6] was 55.4 (37 - 59) %, the “CD25+ of CD4+ cells, HCV- subjects” value [3] was 10.1 (10 - 14) % and the “IL-10+ of CD4+CD25+ cells, HCV- subjects” value [3] was 2.95 (2.6 - 3.2) %. For the same sequence, the “TGFβ+ IL-10+ of CD4+CD25+ cells, HCV- subjects” value [3] was 0.67 (0.5 - 2.5) %, the “TGFβ+ of CD4+CD25+ cells, HCV- subjects” value [3] was 5.04 (2.0 - 8.5) % and the “expression of Foxp3 and CTLA-4 compared to cells cultured with medium alone” value ([4]; CD25+ cells) was “down-regulated”. The “Foxp3 level in CD4+CD25+ cells (median value)” value ([4]; Figure 4A, one representative of two experiments) was 77.8, the “CTLA-4 (CD152) level on CD4+CD25+ cells (median value)” value ([4]; Figure 4B, one representative of two experiments) was 38.4 and the “binding to HLA-DRB1*1501” value (HLA-DRB1*1501 molecules) was “binds to HLA-DRB1*1501 well”.

Source: paper PMC3158126, “Characterization of antigenic variants of hepatitis C virus in immune evasion” (Virology Journal, 2011)
